In patent publication US20230105082A1, “ANTIMICROBIAL COMPOSITIONS FOR PET FOOD PRODUCTS” (priority 2020, published 2023):

Test system: mixture in equal parts of Salmonella ser. Newport, Salmonella ser. Senftenberg, and Salmonella ser. Typhimurium
Assay: Salmonella inhibition in inoculated poultry fat (Examples 2, 4 and 5)
Type: cell-based, Salmonella enterica subsp. enterica
Settings: 1000 ppm in fat; 1 month after inoculation
Excerpt: Bacterial strains and culture medium Six serovars of Salmonella enterica subsp. enterica were used in these studies: Salmonella ser. Infantis (CIP103549), Salmonella ser. Mbandaka (CIP105859), and Salmonella ser. Senftenberg (isolate from pork/poultry from ANSES collection) for Example 1, Example 3 and Example 6 or Salmonella ser. Newport, Salmonella ser. Senftenberg, and Salmonella ser. Typhimurium (all isolated from pet food) for Example 2, Example 4, and Example 5. All strains were kept in collection at -80° C. in glycerol broth. Bacterial strains were cultured in Brain Heart Infusion agar and subcultured in Brain Heart Infusion broth at 37° C. for 20±2 h (BHI, VWR, USA). Salmonella count in poultry fat was carried out using Xylose Lysine Deoxycholate agar (XLD, VWR, USA) for Example 1, Example 3, and Example 6 or Violet Red Bile Glucose agar (VRBG, BioRad, USA) for Example 2, Example 4 and Example 5. Salmonella detection was done following modified EN ISO 6579-1 in 125 g of poultry fat.
Inoculum preparation Two types of matrix inoculum were used. […]
Antimicrobial efficacy of Compositions 5, 6, 7, 8, 16 was tested when added at 500 ppm in fat and compared to antimicrobial efficacy of phosphoric acid (Composition 1) when added at 1000 ppm in fat. The antimicrobial efficacy of Composition 16 at 1000 ppm in fat was also evaluated. […]

Compound: O=P(O)(O)O [Composition 1, Phosphoric acid]
- Salmonella detection: still detected
